From patent US8895504B2, “Amylin derivatives” (priority 2008, dated 2014)
*1 amine or outer side, *2 acyl side, *3 side chain or, on linkers, in order; H or OH if unused. Where a SMILES comes first, the peptide text is derived from it. Bridges are numbered along the chain shown (N, C = ends). The star is where a group is joined. C20 diacid = O=C(O)CCCCCCCCCCCCCCCCCCC(=O)*; C18 diacid = O=C(O)CCCCCCCCCCCCCCCCC(=O)*; γGlu = O=C(O)[C@H](CCC(=O)[*:2])N[*:1]

Target: T1, Amylin 3(a) receptor (human calcitonin receptor (CTa) and RAMP-3) (Homo sapiens, UniProt O60896+P30988)
T1 construct: expressed in transfected cells; host or cells: BHK570 cells, stably transfected with a CRE-luciferase reporter
Assay: Luciferase assay (III), BHK Amylin 3(a)//CRE-luc cells
Format: cell-based
Details: BHK cells with Amylin 3(a) receptor and CRE luciferase reporter, 4 hours incubation; read-out: Potency Luciferase
Excerpt: It has previously been published (Poyner D R et al 2002, Pharmacological Reviews 54(2) 233-246) that activation of Amylin receptors (coexpression of Calcitonin receptor and receptor activity modifying peptides RAMPs) by Amylin leads to an increase in the intracellular concentration of cAMP. Consequently, transcription is activated at promoters containing multiple copies of the cAMP response element (CRE). It is thus possible to measure Amylin activity by use of a CRE luciferase reporter gene introduced into BHK cells also expressing an Amylin receptor.
2. Construction of an Amylin 3(a)/CRE-luc Cell Line
A BHK570 cell line stably transfected with the human calcitonin receptor (CTa) and a CRE-responsive luciferase reportergene. The cell line was further transfected with RAMP-3, using standard methods. This turns the Calcitonin receptor into an Amylin 3(a) receptor. Methotrexate, Neomycin, and Hygromycin are selection markers for luciferase, the Calcitonin receptor, and RAMP-3, respectively.
3. Amylin Luciferase Assay
To perform activity assays, BHK Amylin 3(a)//CRE-luc cells were seeded in white 96 well culture plates at a density of about 20,000 cells/well. The cells were in 100 μl growth medium (DMEM with 10% FBS, 1% Pen/Strep, 1 mM Na-pyruvate, 250 nM Methotrexate, 500 μg/ml Neomycin, and 400 μg/ml Hygromycin). After incubation overnight at 37° C. and 5% CO2, the growth medium was replaced by 50 μl/well assay medium (DMEM (without phenol red), Glumamax™, 10% FBS, and 10 mM Hepes, pH 7,4). Further, 50 μl/well of standard or sample in assay buffer were added. After 4 hours incubation at 37° C. and 5% CO2, the assay medium with standard or sample were removed and replaced by 100 μl/well PBS. Further, 100 μl/well LucLite™ was added. The plates were sealed and incubated at room temperature for 30 minutes. Finally, luminescence was measured on a TopCounter (Packard) in SPC (single photon counting) mode.

T1 sequence (O60896 24-148): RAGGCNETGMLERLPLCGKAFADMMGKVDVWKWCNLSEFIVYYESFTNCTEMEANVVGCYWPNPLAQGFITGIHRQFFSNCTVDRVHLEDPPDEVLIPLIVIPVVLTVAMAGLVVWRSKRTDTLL
T1 sequence (P30988 25-474): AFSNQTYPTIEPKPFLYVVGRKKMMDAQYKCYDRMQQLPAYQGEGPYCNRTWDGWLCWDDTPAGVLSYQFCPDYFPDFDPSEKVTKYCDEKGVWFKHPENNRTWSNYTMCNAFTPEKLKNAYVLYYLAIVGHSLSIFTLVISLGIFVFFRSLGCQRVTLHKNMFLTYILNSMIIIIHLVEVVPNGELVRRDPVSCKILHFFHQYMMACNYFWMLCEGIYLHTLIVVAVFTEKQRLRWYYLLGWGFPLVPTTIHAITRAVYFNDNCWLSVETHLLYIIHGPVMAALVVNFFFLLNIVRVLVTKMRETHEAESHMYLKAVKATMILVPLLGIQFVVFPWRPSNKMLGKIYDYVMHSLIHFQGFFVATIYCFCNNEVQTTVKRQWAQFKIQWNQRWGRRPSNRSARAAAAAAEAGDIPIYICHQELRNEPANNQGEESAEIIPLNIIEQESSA

EC50 [nM]	Compound
0.2	CC[C@H](C)[C@H](NC(=O)[C@@H]1CCCN1C(=O)CNC(=O)[C@H](Cc1ccccc1)NC(=O)[C@H](CC(N)=O)NC(=O)[C@H](CC(N)=O)NC(=O)[C@H](CO)NC(=O)[C@H](CO)NC(=O)[C@H](Cc1c[nH]cn1)NC(=O)[C@H](Cc1c[nH]cn1)NC(=O)[C@H](CC(C)C)NC(=O)[C@H](Cc1ccccc1)NC(=O)[C@H](CC(N)=O)NC(=O)[C@H](C)NC(=O)[C@H](CC(C)C)NC(=O)[C@H](CCCNC(=N)N)NC(=O)[C@H](CCC(N)=O)NC(=O)[C@@H](NC(=O)[C@H](C)NC(=O)[C@@H]1CSSC[C@H](NC(=O)[C@H](CCCCN)NC(=O)CC[C@H](NC(=O)CCCCCCCCCCCCCCCCCCC(=O)O)C(=O)O)C(=O)N[C@@H](CC(N)=O)C(=O)N[C@@H]([C@@H](C)O)C(=O)N[C@@H](C)C(=O)N[C@@H]([C@@H](C)O)C(=O)N1)[C@@H](C)O)C(=O)N[C@@H](CC(C)C)C(=O)N1CCC[C@H]1C(=O)N1CCC[C@H]1C(=O)N[C@H](C(=O)N[C@@H](CC(N)=O)C(=O)N[C@H](C(=O)NCC(=O)N[C@@H](CO)C(=O)N[C@@H](CC(N)=O)C(=O)N[C@H](C(=O)N[C@@H](Cc1ccc(O)cc1)C(N)=O)[C@@H](C)O)C(C)C)[C@@H](C)O [Example 7, N-alpha-[(S)-4-Carboxy-4-(19-carboxynonadecanoylamino)butyryl]-[His17]-pramlintide] ({C20 diacid-γGlu}-KCNTATCATQRLANFLHHSSNNFGPILPPTNVGSNTY-NH2; disulfide 2-7)
0.1	CC[C@H](C)[C@H](NC(=O)[C@@H]1CCCN1C(=O)CNC(=O)[C@H](Cc1ccccc1)NC(=O)[C@H](CC(N)=O)NC(=O)[C@H](CC(N)=O)NC(=O)[C@H](CO)NC(=O)[C@H](CO)NC(=O)[C@H](Cc1c[nH]cn1)NC(=O)[C@H](Cc1c[nH]cn1)NC(=O)[C@H](CC(C)C)NC(=O)[C@H](Cc1ccccc1)NC(=O)[C@H](CC(N)=O)NC(=O)[C@H](C)NC(=O)[C@H](CC(C)C)NC(=O)[C@H](CCCNC(=N)N)NC(=O)[C@H](CCC(N)=O)NC(=O)[C@@H](NC(=O)[C@H](C)NC(=O)[C@@H]1CSSC[C@H](NC(=O)[C@H](CCCNC(=N)N)NC(=O)[C@H](Cc2c[nH]cn2)NC(=O)[C@H](Cc2c[nH]cn2)NC(=O)[C@H](CCC(=O)O)NC(=O)CC[C@H](NC(=O)CCCCCCCCCCCCCCCCCCC(=O)O)C(=O)O)C(=O)N[C@@H](CC(N)=O)C(=O)N[C@@H]([C@@H](C)O)C(=O)N[C@@H](C)C(=O)N[C@@H]([C@@H](C)O)C(=O)N1)[C@@H](C)O)C(=O)N[C@@H](CC(C)C)C(=O)N1CCC[C@H]1C(=O)N1CCC[C@H]1C(=O)N[C@H](C(=O)N[C@@H](CC(N)=O)C(=O)N[C@H](C(=O)NCC(=O)N[C@@H](CO)C(=O)N[C@@H](CC(N)=O)C(=O)N[C@H](C(=O)N[C@@H](Cc1ccc(O)cc1)C(N)=O)[C@@H](C)O)C(C)C)[C@@H](C)O [Example 67, N-alpha-[(S)-4-Carboxy-4-(19-carboxynonadecanoylamino)butyryl]-Glu-His-His-[Arg1,His17]-pramlintide] ({C20 diacid-γGlu}-EHHRCNTATCATQRLANFLHHSSNNFGPILPPTNVGSNTY-NH2; disulfide 5-10)
0.3	CC[C@H](C)[C@H](NC(=O)[C@@H]1CCCN1C(=O)CNC(=O)[C@H](Cc1ccccc1)NC(=O)[C@H](CC(N)=O)NC(=O)[C@H](CC(N)=O)NC(=O)[C@H](CO)NC(=O)[C@H](CO)NC(=O)[C@H](Cc1c[nH]cn1)NC(=O)[C@H](CCCNC(=N)N)NC(=O)[C@H](CC(C)C)NC(=O)[C@H](Cc1ccccc1)NC(=O)[C@H](CC(N)=O)NC(=O)[C@H](C)NC(=O)[C@H](CC(C)C)NC(=O)[C@H](CCCNC(=N)N)NC(=O)[C@H](CCC(N)=O)NC(=O)[C@@H](NC(=O)[C@H](C)NC(=O)[C@@H]1CSSC[C@H](NC(=O)[C@H](CCC(=O)O)NC(=O)[C@H](CCC(=O)O)NC(=O)CC[C@H](NC(=O)CCCCCCCCCCCCCCCCCCC(=O)O)C(=O)O)C(=O)N[C@@H](CC(N)=O)C(=O)N[C@@H]([C@@H](C)O)C(=O)N[C@@H](C)C(=O)N[C@@H]([C@@H](C)O)C(=O)N1)[C@@H](C)O)C(=O)N[C@@H](CC(C)C)C(=O)N1CCC[C@H]1C(=O)N1CCC[C@H]1C(=O)N[C@H](C(=O)N[C@@H](CC(N)=O)C(=O)N[C@H](C(=O)NCC(=O)N[C@@H](CO)C(=O)N[C@@H](CC(N)=O)C(=O)N[C@H](C(=O)N[C@@H](Cc1ccc(O)cc1)C(N)=O)[C@@H](C)O)C(C)C)[C@@H](C)O [Example 49, N-alpha-[(S)-4-Carboxy-4-(19-carboxynonadecanoylamino)butyryl]-Glu-[Glu1,Arg17]-pramlintide] ({C20 diacid-γGlu}-EECNTATCATQRLANFLRHSSNNFGPILPPTNVGSNTY-NH2; disulfide 3-8)
0.1	CC[C@H](C)[C@H](NC(=O)[C@@H]1CCCN1C(=O)CNC(=O)[C@H](Cc1ccccc1)NC(=O)[C@H](CC(N)=O)NC(=O)[C@H](CC(N)=O)NC(=O)[C@H](CO)NC(=O)[C@H](CO)NC(=O)[C@H](Cc1c[nH]cn1)NC(=O)[C@H](Cc1c[nH]cn1)NC(=O)[C@H](CC(C)C)NC(=O)[C@H](Cc1ccccc1)NC(=O)[C@H](CC(N)=O)NC(=O)[C@H](C)NC(=O)[C@H](CC(C)C)NC(=O)[C@H](CCCNC(=N)N)NC(=O)[C@H](CCC(N)=O)NC(=O)[C@@H](NC(=O)[C@H](C)NC(=O)[C@@H]1CSSC[C@H](NC(=O)[C@H](CCCNC(=N)N)NC(=O)[C@H](Cc2c[nH]cn2)NC(=O)[C@H](CCCNC(=N)N)NC(=O)CC[C@H](NC(=O)CCCCCCCCCCCCCCCCCCC(=O)O)C(=O)O)C(=O)N[C@@H](CC(N)=O)C(=O)N[C@@H]([C@@H](C)O)C(=O)N[C@@H](C)C(=O)N[C@@H]([C@@H](C)O)C(=O)N1)[C@@H](C)O)C(=O)N[C@@H](CC(C)C)C(=O)N1CCC[C@H]1C(=O)N1CCC[C@H]1C(=O)N[C@H](C(=O)N[C@@H](CC(N)=O)C(=O)N[C@H](C(=O)NCC(=O)N[C@@H](CO)C(=O)N[C@@H](CC(N)=O)C(=O)N[C@H](C(=O)N[C@@H](Cc1ccc(O)cc1)C(N)=O)[C@@H](C)O)C(C)C)[C@@H](C)O [Example 70, N-alpha-[(S)-4-Carboxy-4-(19-carboxynonadecanoylamino)butyryl]-Arg-His[Arg1,His17]-pramlintide] ({C20 diacid-γGlu}-RHRCNTATCATQRLANFLHHSSNNFGPILPPTNVGSNTY-NH2; disulfide 4-9)
0.05	CC[C@H](C)[C@H](NC(=O)[C@@H]1CCCN1C(=O)CNC(=O)[C@H](Cc1ccccc1)NC(=O)[C@H](CC(N)=O)NC(=O)[C@H](CC(N)=O)NC(=O)[C@H](CO)NC(=O)[C@H](CO)NC(=O)[C@H](Cc1c[nH]cn1)NC(=O)[C@H](CCCNC(=N)N)NC(=O)[C@H](CC(C)C)NC(=O)[C@H](Cc1ccccc1)NC(=O)[C@H](CC(N)=O)NC(=O)[C@H](C)NC(=O)[C@H](CC(C)C)NC(=O)[C@H](CCCNC(=N)N)NC(=O)[C@H](CCC(N)=O)NC(=O)[C@@H](NC(=O)[C@H](C)NC(=O)[C@@H]1CSSC[C@H](NC(=O)[C@H](CCCCN)NC(=O)[C@H](CCCNC(=N)N)NC(=O)CC[C@H](NC(=O)CCCCCCCCCCCCCCCCC(=O)O)C(=O)O)C(=O)N[C@@H](CC(N)=O)C(=O)N[C@@H]([C@@H](C)O)C(=O)N[C@@H](C)C(=O)N[C@@H]([C@@H](C)O)C(=O)N1)[C@@H](C)O)C(=O)N[C@@H](CC(C)C)C(=O)N1CCC[C@H]1C(=O)N1CCC[C@H]1C(=O)N[C@H](C(=O)N[C@@H](CC(N)=O)C(=O)N[C@H](C(=O)NCC(=O)N[C@@H](CO)C(=O)N[C@@H](CC(N)=O)C(=O)N[C@H](C(=O)N[C@@H](Cc1ccc(O)cc1)C(N)=O)[C@@H](C)O)C(C)C)[C@@H](C)O [Example 26, N-alpha-[(S)-4-Carboxy-4-(17-carboxyheptadecanoylamino)butyryl]-Arg-[Arg17]-pramlintide] ({C18 diacid-γGlu}-RKCNTATCATQRLANFLRHSSNNFGPILPPTNVGSNTY-NH2; disulfide 3-8)
